Source: US20190365680A1, “USE OF EP4 RECEPTOR ANTAGONISTS FOR THE TREATMENT OF NASH-ASSOCIATED LIVER CANCER” (AskAt Inc., priority 2016, published 2019)

Key:
[1] = system: immune cells obtained from mouse livers; conditions: liver; 30 mg/kg QD from 19 to 30 weeks of age; vs vehicle
Procedure: FIG. 5A depicts flow cytometry analysis of immune cells between vehicle-treated mice or Compound A-treated mice. The percentages of total CD11c^hi MHC class II (MHC II)^hi, CD11b^+ CD11c^hi MHC II^hi, or CD103^+ CD11c^hi MHC II^hi cells were analyzed by flow cytometry. Data are represented as means ±SEM.
FIG. 6A depicts the percentages of CD3^+ CD4^+ Foxp3^+, CD3^+ CD4^+ Foxp3^−, CD3^+ CD8^+ cells analyzed by flow cytometry. The ratio of CD8^+ T cells to CD4^+ Foxp3^+ Tregs was calculated. Data are represented as means ±SEM. NS=not significant, *p<0.05, **p<0.01.
In FIG. 7A, the percentages of CD69^+ CD8^+ cells were analyzed by flow cytometry (*p<0.05, **p<0.01).
In FIG. 8A, the percentages of PD-1^+ CD8^+ cells were analyzed by flow cytometry (*p<0.05, **p<0.01).
Immune cells were obtained from mouse livers and were subjected to measuring cytokine production and flow cytometric analysis.
Data were analyzed by unpaired t-test with Welch correction (two-side) or Man-Whitney test (two-side). P values less than 0.05 were considered significant. “NS” indicates not significant.
The impact of EP4 blockage on the prevalence and activation status of immune cells was assessed.

[2] = system: obesity-induced NASH-associated liver cancer; experiment: Obesity-induced (DMBA + high fat diet) NASH-associated mouse liver cancer model: liver tumor development; format: in vivo
Procedure: FIG. 1 depicts a mouse model timeline developed by treating with 7,12-dimethylbenz(a)anthracene (“DMBA”), and by feeding with a high fat diet (HFD). Compound A was administered to the mice every day from 19 weeks of age to 30 weeks of age and then euthanized (“Eut”).
FIG. 2 is macroscopic photographs of the liver isolated from the vehicle-treated mice (left side) and Compound A-treated mice (right side). […] Compound A or a vehicle (n=5, each) were treated to the mice every day from 19 weeks of age to 30 weeks of age. Arrowheads identify hepatocellular carcinomas (HCCs).
FIG. 3 depicts the average liver tumor numbers and the relative size distribution (classified as >6 mm, 2-6 mm, ≤2 mm). “NS” means not significant.
C57/BL6 mice were purchased from CLEA Japan Inc. The Tlr2^−/− mice (C57/BL6) were purchased from Oriental Yeast Co. Ltd.
Hematoxylin and eosin staining and immunofluorescence analysis were performed as previously described (Yoshimoto et al., Nature, 2013, 499:97-101).
P values less than 0.05 were considered significant. “NS” indicates not significant.
(§1) This mouse model was developed by treating with DMBA, 7,12-dimethylbenz(a)anthracene, and by feeding a high fat diet (HFD) (NPL 15). […] In this experiment, Compound A 30 mg/kg QD was administered to the mice every day from 19 weeks of age to 30 weeks of age (FIG. 1). As a control, a separate group of mice were treated only with a vehicle and no active ingredient.

[3] = Body weight in the NASH-associated mouse liver cancer model; format: in vivo; conditions: 30 mg/kg QD from 19 to 30 weeks of age; weight at the age of 30 weeks
Procedure: FIG. 4 depicts the average body weight of the vehicle-treated group and Compound A-treated group at the age of 30 weeks. Data are represented as means ±SD.
as §1

Question: Which “frequency of CD4+Foxp3+ regulatory T cells (Tregs)” value [1] does the source give for `C[C@H](NC(=O)c1cc(Cl)cnc1Oc1cccc(F)c1)c1ccc(C(=O)O)cc1` [Compound A, 4-[(1S)-1-({[5-chloro-2-(3-fluorophenoxy)pyridin-3-yl]carbonyl}amino)ethyl]-benzoic acid] here?
Answer: significantly reduced

Question: And the “frequency of CD8+ T cells” value [1]?
Answer: not changed

Question: What about the “frequency of CD11b+ DCs” value [1] of the same molecule?
Answer: not changed

Question: What about the “frequency of CD11chi MHC class IIhi dendritic cells (DCs)” value [1] of the same molecule?
Answer: not changed

Question: And the “number of CD8+ T cells expressing programmed cell death-1 (PD-1)” value [1]?
Answer: significantly reduced

Question: What about the “number of CD8+ T cells expressing the activation marker CD69” value [1] of the same molecule?
Answer: significantly increased

Question: What about the “population of CD103+ DCs” value [1] of the same molecule?
Answer: increased

Question: What about the “ratio of CD8+ T cells to Tregs” value [1] of the same molecule?
Answer: increased

Question: And the “Hepatocellular carcinoma (HCC) development compared to vehicle-treated mice” value ([2]; C57/BL6 mice, DMBA + HFD, 30 mg/kg QD every day from 19 to 30 weeks of age)?
Answer: strongly reduced

Question: What about the “Tumor colony sized more than 6 mm” value ([2]; DMBA + HFD mice, treated every day from 19 to 30 weeks of age) of the same molecule?
Answer: completely disappeared

Question: What about the “tumor number in the liver compared to vehicle-treated mice” value ([2]; DMBA + HFD mice, treated every day from 19 to 30 weeks of age, n=5) of the same molecule?
Answer: significantly inhibited

Question: And the body weight [3]?
Answer: did not influence
